# Data published in patent US20260297095A1, “NOVEL PYRROLOTRIAZINE DERIVATIVE AND USE THEREOF” (Pelemed Co., Ltd., priority 2024, published 2026).
# Key:
# YES1 kinase = YES1 kinase (Homo sapiens, UniProt P07947); experiment: YES1 kinase inhibition, ADP Glo assay (Promega); assay type: biochemical; conditions: for IC50: class symbols, read-out: YES1 enzyme, IC50; for YES1 kinase inhibition at 1 nM (in words) / inhibition at 0.001 µM: compound 1 nM; for inhibition at 0.001 µM: read-out: YES1 enzyme, % inhibition, 1 nM; for inhibition at 0.01 µM: compound 10 nM, read-out: YES1 enzyme, % inhibition, 10 nM; for inhibition at 0.1 µM: compound 100 nM, read-out: YES1 enzyme, % inhibition, 100 nM
# How it was run: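 ADP-Glo luminescence after a 40 min room-temperature reaction of YES1 with ATP and substrate (buffer with MnCl2 and DTT; 10 min compound preincubation) was used as readout. Percent inhibition at 1, 10 and 100 nM compound was calculated relative to negative control after background subtraction, and IC50 values derived.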
# [1] = system: KYSE-70 esophageal cancer cell line; experiment: Cell growth inhibition of KYSE-70 (Sulforhodamine B); assay type: cell-based; conditions: Homo sapiens; KYSE-70, 72 hours; read-out: KYSE70 GI50
# How it was run: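 KYSE-70 cells (YES1-amplified) in RPMI-1640 with 10% FBS were seeded 24 h before treatment with compound at 0.0046–10 µM final. After 72 h, cells were TCA-fixed and stained with sulforhodamine B, with absorbance read at 510 nm. GI50 was derived with a time-zero plate set to 0% and the vehicle control to 100%, in duplicate tests.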
# Chain of YES1 kinase (P07947 whole entry): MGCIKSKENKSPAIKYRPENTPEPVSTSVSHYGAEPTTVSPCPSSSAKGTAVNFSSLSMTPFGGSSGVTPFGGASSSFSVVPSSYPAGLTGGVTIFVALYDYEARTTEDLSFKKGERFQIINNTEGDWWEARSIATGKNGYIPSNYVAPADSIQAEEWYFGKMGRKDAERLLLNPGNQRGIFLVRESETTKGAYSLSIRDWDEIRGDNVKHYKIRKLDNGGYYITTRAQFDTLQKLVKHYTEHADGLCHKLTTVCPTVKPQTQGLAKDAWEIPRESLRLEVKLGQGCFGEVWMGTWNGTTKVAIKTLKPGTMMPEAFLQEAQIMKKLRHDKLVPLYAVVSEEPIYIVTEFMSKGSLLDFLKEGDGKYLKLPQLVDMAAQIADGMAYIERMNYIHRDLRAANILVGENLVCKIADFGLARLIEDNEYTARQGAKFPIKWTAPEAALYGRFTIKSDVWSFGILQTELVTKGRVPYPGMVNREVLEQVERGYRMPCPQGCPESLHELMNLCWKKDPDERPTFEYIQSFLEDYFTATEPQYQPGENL
smiles,measurement,setting,value
"COc1cc(-c2c(C)c(N3CCC(N)CC3)n3ncnc(N)c23)ccc1NC(=O)OC(C)(C)C [Example 74, tert-butyl (4-(4-amino-7-(4-aminopiperidin-1-yl)-6-methylpyrrolo[2,1-f][1,2,4]triazin-5-yl)-2-methoxyphenyl)carbamate]",IC50,YES1 kinase,≤ 100 nM
same,YES1 kinase inhibition at 1 nM (in words),YES1 kinase,could be inhibited even at a low concentration of 1 nM
same,inhibition at 0.001 µM,YES1 kinase,43%
same,inhibition at 0.01 µM,YES1 kinase,66%
same,GI50,[1],≤ 100 nM
"COc1cc(-c2cc(N3CCC(N)(C(F)(F)F)CC3)n3ncnc(N)c23)ccc1NC(=O)OC(C)(C)C [Example 83, tert-butyl (4-(4-amino-7-(4-amino-4-(trifluoromethyl)piperidin-1-yl)pyrrolo[2,1-f][1,2,4]triazin-5-yl)-2-methoxyphenyl)carbamate]",YES1 kinase inhibition at 1 nM (in words),YES1 kinase,could be inhibited even at a low concentration of 1 nM
same,inhibition at 0.001 µM,YES1 kinase,14%
same,inhibition at 0.01 µM,YES1 kinase,24%
same,GI50,[1],100 to 1000 nM
"COc1cc(-c2cc(N3CC[C@H](N)[C@@H](C(F)(F)F)C3)n3ncnc(N)c23)ccc1NC(=O)OC(C)(C)C [Example 85, tert-butyl (4-(4-amino-7-((3S,4S)-4-amino-3-(trifluoromethyl)piperidin-1-yl)pyrrolo[2,1-f][1,2,4]triazin-5-yl)-2-methoxyphenyl)carbamate]",IC50,YES1 kinase,≤ 100 nM
same,inhibition at 0.01 µM,YES1 kinase,59%
same,inhibition at 0.1 µM,YES1 kinase,78%
same,GI50,[1],≤ 100 nM
"CN[C@@H]1CCN(c2cc(-c3ccc(NC(=O)OC(C)(C)C)c(OC)c3)c3c(N)ncnn23)C[C@@H]1F [Example 87, tert-butyl (4-(4-amino-7-((3S,4R)-3-fluoro-4-(methylamino)piperidin-1-yl)pyrrolo[2,1-f][1,2,4]triazin-5-yl)-2-methoxyphenyl)carbamate]",IC50,YES1 kinase,≤ 100 nM
same,inhibition at 0.01 µM,YES1 kinase,61%
same,inhibition at 0.1 µM,YES1 kinase,80%
same,GI50,[1],≤ 100 nM
"COc1cc(-c2cc(N3CCC(C(=O)O)CC3)n3ncnc(N)c23)ccc1NC(=O)OC(C)(C)C [Example 89, 1-(4-amino-5-(4-((tert-butoxycarbonyl)amino)-3-methoxyphenyl)pyrrolo[2,1-f][1,2,4]triazin-7-yl)piperidine-4-carboxylic acid]",YES1 kinase inhibition at 1 nM (in words),YES1 kinase,could be inhibited even at a low concentration of 1 nM
same,inhibition at 0.001 µM,YES1 kinase,19%
same,inhibition at 0.01 µM,YES1 kinase,34%
same,GI50,[1],> 10000 nM
"COc1cc(-c2cc(N3CCC(O)CC3)n3ncnc(N)c23)ccc1NC(=O)OC(C)(C)C [Example 90, tert-butyl (4-(4-amino-7-(4-hydroxypiperidin-1-yl)pyrrolo[2,1-f][1,2,4]triazin-5-yl)-2-methoxyphenyl)carbamate]",YES1 kinase inhibition at 1 nM (in words),YES1 kinase,could be inhibited even at a low concentration of 1 nM
same,inhibition at 0.001 µM,YES1 kinase,12%
same,inhibition at 0.01 µM,YES1 kinase,47%
same,GI50,[1],100 to 1000 nM
"COc1cc(-c2cc(N3CC(C)C(N)C(C)C3)n3ncnc(N)c23)ccc1NC(=O)OC(C)(C)C (centres unmarked) [Example 91, tert-butyl (4-(4-amino-7-(4-amino-3,5-dimethylpiperidin-1-yl)pyrrolo[2,1-f][1,2,4]triazin-5-yl)-2-methoxyphenyl)carbamate]",inhibition at 0.01 µM,YES1 kinase,21%
same,inhibition at 0.1 µM,YES1 kinase,59%
same,GI50,[1],100 to 1000 nM
"CCNC1CCN(c2cc(-c3ccc(NC(=O)OC(C)(C)C)c(OC)c3)c3c(N)ncnn23)CC1 [Example 92, tert-butyl (4-(4-amino-7-(4-(ethylamino)piperidin-1-yl)pyrrolo[2,1-f][1,2,4]triazin-5-yl)-2-methoxyphenyl)carbamate]",IC50,YES1 kinase,≤ 100 nM
same,inhibition at 0.01 µM,YES1 kinase,66%
same,inhibition at 0.1 µM,YES1 kinase,81%
same,GI50,[1],100 to 1000 nM
"COc1cc(-c2cc(N3CC4CC(C3)C4N)n3ncnc(N)c23)ccc1NC(=O)OC(C)(C)C (centres unmarked) [Example 93, tert-butyl (4-(4-amino-7-(6-amino-3-azabicyclo[3.1.1]heptan-3-yl)pyrrolo[2,1-f][1,2,4]triazin-5-yl)-2-methoxyphenyl)carbamate]",inhibition at 0.01 µM,YES1 kinase,14%
same,inhibition at 0.1 µM,YES1 kinase,48%
same,GI50,[1],100 to 1000 nM
"COc1cc(-c2cc(N3CCC(N)C(C)(C)C3)n3ncnc(N)c23)ccc1NC(=O)OC(C)(C)C (centres unmarked) [Example 94, tert-butyl (4-(4-amino-7-(4-amino-3,3-dimethylpiperidin-1-yl)pyrrolo[2,1-f][1,2,4]triazin-5-yl)-2-methoxyphenyl)carbamate]",IC50,YES1 kinase,≤ 100 nM
same,inhibition at 0.01 µM,YES1 kinase,41%
same,inhibition at 0.1 µM,YES1 kinase,78%
same,GI50,[1],≤ 100 nM
"COc1cc(-c2cc(CCN3CCC(N(C)C)CC3)n3ncnc(N)c23)ccc1NC(=O)OC(C)(C)C [Example 98, tert-butyl (4-(4-amino-7-(2-(4-(dimethylamino)piperidin-1-yl)ethyl)pyrrolo[2,1-f][1,2,4]triazin-5-yl)-2-methoxyphenyl)carbamate]",inhibition at 0.01 µM,YES1 kinase,65%
same,inhibition at 0.1 µM,YES1 kinase,90%
same,GI50,[1],≤ 100 nM
"CNC1CCN(CCc2cc(-c3ccc(NC(=O)OC(C)(C)C)c(OC)c3)c3c(N)ncnn23)CC1 [Example 99, tert-butyl (4-(4-amino-7-(2-(4-(methylamino)piperidin-1-yl)ethyl)pyrrolo[2,1-f][1,2,4]triazin-5-yl)-2-methoxyphenyl)carbamate]",inhibition at 0.01 µM,YES1 kinase,71%
same,inhibition at 0.1 µM,YES1 kinase,90%
same,GI50,[1],≤ 100 nM
"COc1cc(-c2cc(CCN3CCC(N)CC3)n3ncnc(N)c23)ccc1NC(=O)OC(C)(C)C [Example 100, tert-butyl (4-(4-amino-7-(2-(4-aminopiperidin-1-yl)ethyl)pyrrolo[2,1-f][1,2,4]triazin-5-yl)-2-methoxyphenyl)carbamate]",inhibition at 0.01 µM,YES1 kinase,70%
same,inhibition at 0.1 µM,YES1 kinase,88%
same,GI50,[1],≤ 100 nM
"COc1cc(-c2cc(N3CCC(CC(=O)O)CC3)n3ncnc(N)c23)ccc1NC(=O)OC(C)(C)C [Example 101, 2-(1-(4-amino-5-(4-((tert-butoxycarbonyl)amino)-3-methoxyphenyl)pyrrolo[2,1-f][1,2,4]triazin-7-yl)piperidin-4-yl)acetic Acid]",YES1 kinase inhibition at 1 nM (in words),YES1 kinase,could be inhibited even at a low concentration of 1 nM
same,inhibition at 0.001 µM,YES1 kinase,16%
same,inhibition at 0.01 µM,YES1 kinase,40%
same,GI50,[1],> 10000 nM
"COc1cc(-c2cc(N3CCC(CO)CC3)n3ncnc(N)c23)ccc1NC(=O)OC(C)(C)C [Example 102, tert-butyl (4-(4-amino-7-(4-(hydroxymethyl)piperidin-1-yl)pyrrolo[2,1-f][1,2,4]triazin-5-yl)-2-methoxyphenyl)carbamate]",YES1 kinase inhibition at 1 nM (in words),YES1 kinase,could be inhibited even at a low concentration of 1 nM
same,inhibition at 0.001 µM,YES1 kinase,11%
same,inhibition at 0.01 µM,YES1 kinase,39%
same,GI50,[1],100 to 1000 nM
"COc1cc(-c2cc(N3CCC(NC(C)=O)CC3)n3ncnc(N)c23)ccc1NC(=O)OC(C)(C)C [Example 103, tert-butyl (4-(7-(4-acetamidopiperidin-1-yl)-4-aminopyrrolo[2,1-f][1,2,4]triazin-5-yl)-2-methoxyphenyl)carbamate]",inhibition at 0.01 µM,YES1 kinase,27%
same,inhibition at 0.1 µM,YES1 kinase,66%
same,GI50,[1],100 to 1000 nM
"COc1cc(-c2cc(N3CCC(CN)C(C)(C)C3)n3ncnc(N)c23)ccc1NC(=O)OC(C)(C)C (centres unmarked) [Example 104, tert-butyl (4-(4-amino-7-(4-(aminomethyl)-3,3-dimethylpiperidin-1-yl)pyrrolo[2,1-f][1,2,4]triazin-5-yl)-2-methoxyphenyl)carbamate]",YES1 kinase inhibition at 1 nM (in words),YES1 kinase,could be inhibited even at a low concentration of 1 nM
same,inhibition at 0.001 µM,YES1 kinase,33%
same,inhibition at 0.01 µM,YES1 kinase,45%
same,GI50,[1],100 to 1000 nM
"CNC1(C)CCN(c2cc(-c3ccc(NC(=O)OC(C)(C)C)c(OC)c3)c3c(N)ncnn23)CC1 [Example 105, tert-butyl (4-(4-amino-7-(4-methyl-4-(methylamino)piperidin-1-yl)pyrrolo[2,1-f][1,2,4]triazin-5-yl)-2-methoxyphenyl)carbamate]",IC50,YES1 kinase,≤ 100 nM
same,GI50,[1],≤ 100 nM
"COc1cc(-c2cc(N3CCC(C(C)(C)N)CC3)n3ncnc(N)c23)ccc1NC(=O)OC(C)(C)C [Example 106, tert-butyl (4-(4-amino-7-(4-(2-aminopropan-2-yl)piperidin-1-yl)pyrrolo[2,1-f][1,2,4]triazin-5-yl)-2-methoxyphenyl)carbamate]",inhibition at 0.001 µM,YES1 kinase,37%
same,inhibition at 0.01 µM,YES1 kinase,43%
same,GI50,[1],≤ 100 nM
"COc1cc(-c2cc(N3CCC(CCN)CC3)n3ncnc(N)c23)ccc1NC(=O)OC(C)(C)C [Example 107, tert-butyl (4-(4-amino-7-(4-(2-aminoethyl)piperidin-1-yl)pyrrolo[2,1-f][1,2,4]triazin-5-yl)-2-methoxyphenyl)carbamate]",IC50,YES1 kinase,≤ 100 nM
same,inhibition at 0.001 µM,YES1 kinase,38%
same,inhibition at 0.01 µM,YES1 kinase,52%
same,GI50,[1],100 to 1000 nM
"CNCCC1CCN(c2cc(-c3ccc(NC(=O)OC(C)(C)C)c(OC)c3)c3c(N)ncnn23)CC1 [Example 108, tert-butyl (4-(4-amino-7-(4-(2-(methylamino)ethyl)piperidin-1-yl)pyrrolo[2,1-f][1,2,4]triazin-5-yl)-2-methoxyphenyl)carbamate]",IC50,YES1 kinase,≤ 100 nM
same,inhibition at 0.001 µM,YES1 kinase,38%
same,inhibition at 0.01 µM,YES1 kinase,52%
same,GI50,[1],≤ 100 nM
"COc1cc(-c2cc(N3CCC(CCN(C)C)CC3)n3ncnc(N)c23)ccc1NC(=O)OC(C)(C)C [Example 109, tert-butyl (4-(4-amino-7-(4-(2-(dimethylamino)ethyl)piperidin-1-yl)pyrrolo[2,1-f][1,2,4]triazin-5-yl)-2-methoxyphenyl)carbamate]",IC50,YES1 kinase,≤ 100 nM
same,inhibition at 0.001 µM,YES1 kinase,37%
same,inhibition at 0.01 µM,YES1 kinase,51%
same,GI50,[1],≤ 100 nM
